According to US10059712B2, “N-benzyl tryptanthrin derivative, and preparation method and application thereof” (priority 2013, dated 2018):
Where two headings read alike, the source gives them in different places. One block for each compound: values may come before it.

How the values were obtained:
[1] = test system: T lymphocytes; experiment: T-cell proliferation assay (spleen lymphocytes + LLC cells, WST-1); format: cell-based, mice; conditions: 50 μM IDO inhibitor, 72 hours
Protocol: Isolation of Spleen Lymphocytes (Performed in Accordance with the Lymphocyte Separation Medium Instructions):
1. Two mice were sacrificed by cervical dislocation and spleens were removed on a sterile table and placed into a 6 cm plate containing an RP1640 culture medium for later use.
2. A 100 μm mesh was placed in a 50 mL centrifuge tube and each spleen was cut into smaller pieces using scissors, milled on top of the sieve and a small amount of RP1640 was added for preservation purposes.
3. A lymphocyte separation medium equivalent to twice the volume of the resulting slurry was then added.
4. Centrifugation was performed at 800 g for 20 minutes, after which three distinct layers were visible, with the middle layer showing a slight yellowish tint.
5. Cells in the middle layer were removed and an RP1640 culture medium was added to perform a reverse wash. Cells were then centrifuged at 250 g for 10 minutes at room temperature, and the cells were collected.
6. The culture medium was aspirated off and cells were resuspended in the RP1640 medium, after which a cell count was performed.
LLC (Lewis Lung Carcinoma) Cell Treatment:
1. A medium (high glucose DMEM, 10% FBS) was aspirated off and washing was performed 1-2 times using PBS;
3. The trypsin was aspirated off and a culture medium was added, after which cells were pipetted off and transferred to a 1.5 mL centrifuge tube;
4. Centrifugation followed by aspiration of the supernatant was performed, and cells were resuspended in 1 mL of the DMEM culture medium;
5. Mitomycin C (final concentration: 25 μg/mL) was added, the mixture was pipetted up and down until homogeneous, and the mixture was placed in a 37° C. bath for 30 minutes;
6. Washing was performed 3 times with RP1640, the cells were counted and the sample was set aside.
1. Treated LLC cells (2×10^4 cells/well; stimulator cells) and spleen lymphocytes (10^5 cells/well; reaction cells) were added to a 96-well plate, after which RP1640 (10% FBS was added to bring the volume to 200 μL;
3. A WST-1 reagent kit was used to measure T-cell proliferation, and absorbance values at a wavelength of 450 nm were measured using a plate reader;
4. […] Experimental Results

[2] = target: T1, IDO (Homo sapiens, UniProt P14902); experiment: Determining inhibitor type and Ki value measurement (Dixon plot); format: biochemical; design: made in house; host or cells: Escherichia coli
Protocol: (§1) The IDO inhibitory activity with respect to each compound was detected using the methods described in the literature. 50 mM potassium phosphate buffer (pH 6.5), 40 mM vitamin C, 400 μg/ml catalase, 20 μM methylene blue and IDO enzyme were mixed together in a 96-well plate. The substrate L-tryptophan and the sample to be tested were then added to the aforementioned mixture. The reaction was carried out for 60 minutes at 37° C., after which the reaction was terminated by adding 30% (w/v) trichloroacetic acid. The 96-well plate was heated to 65° C. for 15 minutes to complete the conversion from formylkynurenine to kynurenine, and centrifugation was performed with 6000 g for 5 minutes. 100 μl of supernatant was removed from each well and transferred to a new 96-well plate, after which an acetic acid solution of 2% (w/v) p-(dimethylamino)benzaldehyde was added, and the yellow color produced as a result of the resulting reaction with kynurenine was observable at 490 nm in a microplate reader; the experimental results are shown in Table 1.

[3] = target: T1, IDO; experiment: Measurement of IC50 (cells): HEK 293 cells transfected with pcDNA3.1-hIDO plasmid; format: cell-based; design: expressed in transfected cells; host or cells: HEK 293; conditions: as headed in Table 1, column 3; read-out: IC50 (μM) (Cell)
Protocol: The liposome Lipofectamin 2000 was used to transfect HEK 293 cells with the pcDNA3.1-hIDO plasmid. When measuring the inhibition activity at the cellular level, the HEK293 cell culture medium corresponded to high glucose DMEM, containing 50 U/mL penicillin, 50 U/mL streptomycin and 10% FBS, and culturing was performed at 37° C. under 5% CO2.

[4] = target: T1, IDO; experiment: Measurement of median effective inhibition concentration IC50 (IDO enzyme); format: biochemical; design: made in house; host or cells: Escherichia coli
Protocol: as §1
50 mM potassium phosphate buffer (pH 6.5), 40 mM vitamin C, 400 μg/ml catalase, 20 μM methylene blue, […] of the substrate L-tryptophan and inhibitor were mixed together.

[5] = test system: Lewis lung carcinoma
[6] = test system: Lewis lung carcinoma; experiment: LLC Lewis tumor model, prophylactic administration; conditions: for tumor inhibition rate, tumor volume basis / tumor inhibition rate, tumor weight basis: prophylactic administration; for tumor formation, days after the start of administration: prophylactic administration via gavage, test compound: high dosage group
[7] = 200 mg/kg via gavage, two weeks, post-inoculation
[8] = high dosage group 150 mg/kg via gavage
[9] = low dosage group 75 mg/kg via gavage

T1 sequence (P14902 whole entry): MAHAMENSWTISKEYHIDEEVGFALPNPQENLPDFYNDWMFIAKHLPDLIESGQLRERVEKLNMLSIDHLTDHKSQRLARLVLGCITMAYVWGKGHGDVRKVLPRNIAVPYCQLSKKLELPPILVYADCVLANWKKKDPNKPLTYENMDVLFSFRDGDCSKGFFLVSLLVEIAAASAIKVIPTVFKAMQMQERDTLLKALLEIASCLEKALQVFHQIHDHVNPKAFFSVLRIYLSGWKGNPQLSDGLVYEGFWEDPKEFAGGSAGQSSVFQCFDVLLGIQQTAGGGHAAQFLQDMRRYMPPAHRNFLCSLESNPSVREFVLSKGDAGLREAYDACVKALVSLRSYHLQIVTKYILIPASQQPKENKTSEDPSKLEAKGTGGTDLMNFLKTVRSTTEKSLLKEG

SMILES: CN(C)Cc1ccc2nc3n(c(=O)c2c1)-c1ccc(F)cc1C3=O [Embodiment Example 1, 2-((dimethylamino)methyl)-8-fluoro-indolo[2,1-b]quinazoline-6,12-dione]
T-Cell Proliferation Rate [1]: 4.88%

SMILES: CN1CCN(Cc2ccc3nc4n(c(=O)c3c2)-c2ccccc2C4=O)CC1 [Embodiment Example 6, 2-((4-methyl-piperazin-1-yl)methyl)indolo[2,1-b]quinazoline-6,12-dione]
T-Cell Proliferation Rate [1]: 39.40% | Inhibition Type ([2]; Dixon plot (1/v-[I])): Anticompetitive | Ki ([2]; plot of S/v-[I], read-out: Ki (μM) (in vitro)): 5.97 µM | IC50 [3]: 2.52 µM | IC50 ([4]; as headed in Table 1, column 4, read-out: IC50): 0.97 µM

SMILES: O=C1c2cc(F)ccc2-n2c1nc1ccc(CN3CCNCC3)cc1c2=O [Embodiment Example 3, 8-fluoro-2-(piperazin-1-ylmethyl)indolo[2,1-b]quinazoline-6,12-dione]
T-Cell Proliferation Rate [1]: 40.64%

SMILES: CC(C)(C)OC(=O)N1CCN(Cc2ccc3nc4n(c(=O)c3c2)-c2ccc(F)cc2C4=O)CC1 [Embodiment Example 2, 4-((8-fluoro-6,12-dioxo-6,12-dihydroxy-indolo[2,1-b]quinolin-2-yl)methyl)piperazine-1-carboxylic acid tert-butyl ester]
T-Cell Proliferation Rate [1]: 38.48%

IC50 ([4]; method of Embodiment Example 9-11, read-out: IDO inhibitory activity in vitro IC50): 997 µM
SMILES: Cc1ccc2nc3n(c(=O)c2c1)-c1ccccc1C3=O [Comparative Example, 2-methyl-indole[2,1-b]quinazoline-6,12-dione, reference compound]

SMILES: O=C1c2cc(F)ccc2-n2c1nc1ccc(CN3CCOCC3)cc1c2=O [Embodiment Example 5, 8-fluoro-2-((morpholino-1-yl)methyl)indolo[2,1-b]quinazoline-6,12-dione]
T-Cell Proliferation Rate [1]: 50.27%

SMILES: CC(=O)O[C@H]1C(=O)[C@@]2(C)[C@H]([C@H](OC(=O)c3ccccc3)[C@]3(O)C[C@H](OC(=O)[C@H](O)[C@@H](NC(=O)c4ccccc4)c4ccccc4)C(C)=C1C3(C)C)[C@]1(OC(C)=O)CO[C@@H]1C[C@@H]2O [paclitaxel]
tumor inhibition rate, tumor volume basis ([5]; 100 mg/kg intravenous injection once per week, post-inoculation): 51.45% | toxic side effects observed in mice ([5]; mouse, in vivo): losing weight, losing their fur and showing less movement in general

SMILES: Cn1cc(C[C@H](N)C(=O)O)c2ccccc21 [1-MT, 1-methyl-tryptophan, reference compound]
in vivo Lewis lung carcinoma tumor growth compared to the control group [5, 7]: significant inhibition | tumor inhibition rate, tumor volume basis [5, 7]: 15.68% | tumor inhibition rate, tumor volume basis [6, 8]: 32.35% | tumor inhibition rate, tumor weight basis [6, 8]: 28.2% | tumor inhibition rate, tumor volume basis [6, 9]: 27.00% | tumor formation, days after the start of administration [6]: 13 days

SMILES: CN1CCN(Cc2ccc3nc4n(c(=O)c3c2)-c2ccc(F)cc2C4=O)CC1 [Embodiment Example 4]
T-Cell Proliferation Rate [1]: 41.24% | tumor inhibition rate, tumor volume basis [5, 7]: 23.38% | tumor inhibition rate, tumor volume basis [6, 8]: 62.15% | tumor inhibition rate, tumor weight basis [6, 8]: 57.8% | tumor inhibition rate, tumor volume basis [6, 9]: 46.62% | tumor formation, days after the start of administration [6]: > 20 days
